{"source": "patent US11278561B2", "about": "“Combination treatment for hematological cancers” (Geron Corporation, priority 2016, dated 2022)", "key": {"KG-1 cells": {"tested_on": "KG-1 cells", "assay": "Annexin V / Propidium Iodide flow cytometry apoptosis assay in KG-1", "assay_type": "cell-based", "design": "key to Excess over HSA / Excess over BLISS: excess in % apoptotic (Annexin V/PI double-labeled) cells over HSA/Bliss", "conditions": "for Excess over BLISS / Excess over HSA: imetelstat sodium μM: r7 50, r8 25, r9 10, r10 0", "method": "AML tumor cells KG-1 (ATCC #CCL-246) and MOLM-13 (DSMZ #ACC554) were plated at a density of ˜20,000 cells per well on 96-well polystyrene U-bottom tissue culture plates (Corning catalog #353777) in RPMI-1640 (ThermoFisher catalog #11875-085) supplemented with 10% fetal bovine serum (ThermoFisher catalog #16140-089) and 1% penicillin/streptomycin antibiotic cocktail (ThermoFisher catalog 15140-122) and grown in a 37° C. incubator under humidified 5% CO2 atmosphere.\nAt 48 and 96 hours, cells were measured for healthy, early apoptotic and apoptotic populations with an Annexin V (interior cell membrane stain) plus Propidium Iodide (PI, DNA binding dye) flow cytometry assay kit (BioLegend catalog 640914). Annexin V detects the externalization of phosphatidylserine in apoptotic cells using recombinant annexin V conjugated to green-fluorescent FITC dye and dead cells using Propidium iodide (PI). Propidium iodide stains necrotic cells with red fluorescence. After treatment with both probes, early apoptotic cells show green fluorescence, apoptotic (dead) cells show red and green fluorescence, and live cells show little or no fluorescence. […] Cells were stained for 30 minutes at 4° C. in the dark, followed by 3× washes with PBS and suspension in FACs Stain Buffer (BD catalog 554657) prior to interrogation on a BD FACs Canto flow cytometer for forward scatter, side scatter, FITC, and PE channels. […] The percentage of apoptotic cells (double labeled) was used to calculate combination effects using both the Highest Single Agent (HSA) and Bliss additivity models (J Tang et al. Frontiers in Pharmacology. 2015; 6 (181)).\nUsing the HSA model, the cytotoxic effect of the combined condition (“C”) was compared to the effect generated by each of the single agent controls (“A” or “B”) for the respective dose in the combination: Excess over HSA=C−A (if A>B) or C−B (if A<B)\nThe Bliss model performs a similar comparison, but instead of the highest effect of single agent, the Bliss model subtracts from the combination a value equal to the sum of each single agent minus their product: Excess over Bliss=C−[(A+B)−(A*B)]"}, "hTERT": {"tested_on": "hTERT", "assay": "hTERT transcription levels by RT-qPCR in MOLM-13", "assay_type": "cell-based, human", "conditions": "MOLM-13, 96 hours; 50 μM imetelstat sodium and/or 20 nM ABT-199", "method": "Samples from cell experiments (and single agent controls) were collected for molecular analyses to assess combination effects contributing to potential mechanisms of action. […] Nucleic acids were purified by first lysing cells with 350 μL of RLT Buffer (Qiagen catalog #1030963) supplemented with 2-mercaptoethanol (Sigma catalog #63689-100ML-F). RNA was purified with the AllPrep RNA/DNA Mini Kit (Qiagen catalog #80204) and reverse transcribed to cDNA using a High Capacity cDNA kit (ThermoFisher catalog #4368814) and pre-amplified prior to analysis with TaqMan PreAmp Master Mix (ThermoFisher catalog #4384557B). Products were analyzed using an in-house developed Taq-Man RT-qPCR assay to measure hTERT transcription levels (TaqMan Universal PCR Master Mix—ThermoFisher catalog #4304437; primer and probe sequences below) using a ViiA7 Real-Time PCR system from ThermoFisher: […]"}, "telomerase [1]": {"tested_on": "telomerase", "assay": "telomerase activity by qPCR TRAP in KG-1 lysates", "assay_type": "cell-based, human", "conditions": "50 μM imetelstat sodium or 20 nM ABT-199", "method": "(§1) Samples from the previous section for protein analysis were collected as cell pellets by centrifugation at 5 minutes for 1500K for lyses and protein extraction. Protein lysates were analyzed by utilizing a modified method combined from two primary sources (Hou, et al. (2001) 43(3) 519-524 and Nature Protocols (2006) 1 (3) 1583-1590). Lysates were generated by adding 80 μL of a 10 mM Tris-EDTA, 1% NP-40, 10% Glycerol, 150 mM NaCl, 1 mM MgCl2, 250 μM Sodium Deoxycholate, 100 μM AEBSF, 5 mM 2-mercaptoethanol buffer and incubating on ice for 30 minutes. Lysates were centrifuged for 15 minutes at max speed and at 4° C. to pellet cellular debris. Protein yield from clarified lysates were quantified using a BCA assay (ThermoFisher catalog 23252) and subjected to a qPCR TRAP-based assay to determine relative telomerase activity (Power SYBR Green PCR Master Mix—ThermoFisher #4367659) using a ViiA7 Real-Time PCR system from ThermoFisher. In this assay, protein lysates are exposed to synthetic oligonucleotides mimicking telomere sequences in the presence of excess dNTPs and SYBR green dye. The greater the activity of telomerase, the greater extension of the synthetic primers, and therefore greater staining of nucleic acid and signal generated by the SYBR dye. This signal is compared to a standard curve of control protein lysate to determine the relative telomerase activity between samples."}, "telomerase [2]": {"tested_on": "telomerase", "assay": "telomerase activity by qPCR TRAP in MOLM-13 lysates", "assay_type": "cell-based, human", "conditions": "50 μM imetelstat sodium or 20 nM ABT-199", "method": "as §1"}}}
{"smiles": "CC1(C)CCC(CN2CCN(c3ccc(C(=O)NS(=O)(=O)c4ccc(NCC5CCOCC5)c([N+](=O)[O-])c4)c(Oc4cnc5[nH]ccc5c4)c3)CC2)=C(c2ccc(Cl)cc2)C1", "note": "[ABT-199, 4-[4-[[2-(4-chlorophenyl)-4,4-dimethylcyclohexen-1-yl]methyl]piperazin-1-yl]-N-[3-nitro-4-(oxan-4-ylmethylamino)phenyl]sulfonyl-2-(1H-pyrrolo [2,3-b]pyridin-5-yloxy)benzamide]", "values": [{"measurement": "Excess over BLISS", "setting": "KG-1 cells; KG-1, 48 hours (title of Table 6), ABT-199 1 nM", "value": 0}, {"measurement": "Excess over BLISS", "setting": "KG-1 cells; KG-1, 48 hours (title of Table 6), ABT-199 5 nM", "value": 0}, {"measurement": "Excess over BLISS", "setting": "KG-1 cells; KG-1, 48 hours (title of Table 6), ABT-199 20 nM", "value": 0}, {"measurement": "Excess over BLISS", "setting": "KG-1 cells; KG-1, 48 hours (title of Table 6), ABT-199 100 nM", "value": 0}, {"measurement": "Excess over BLISS", "setting": "KG-1 cells; KG-1, 48 hours (title of Table 6), ABT-199 500 nM", "value": 0}, {"measurement": "Excess over BLISS", "setting": "KG-1 cells; KG-1, 48 hours, ABT-199 1 nM", "value": 0}, {"measurement": "Excess over HSA", "setting": "KG-1 cells; KG-1, 48 hours, ABT-199 1 nM", "value": 0}, {"measurement": "Excess over BLISS", "setting": "KG-1 cells; KG-1, 48 hours, ABT-199 5 nM", "value": 0}, {"measurement": "Excess over HSA", "setting": "KG-1 cells; KG-1, 48 hours, ABT-199 5 nM", "value": 0}, {"measurement": "Excess over BLISS", "setting": "KG-1 cells; KG-1, 48 hours, ABT-199 20 nM", "value": 0}, {"measurement": "Excess over HSA", "setting": "KG-1 cells; KG-1, 48 hours, ABT-199 20 nM", "value": 0}, {"measurement": "% apoptotic cells (double label)", "setting": "KG-1 cells; KG-1, 48 hours, ABT-199 100 nM", "value": "~9", "unit": "%"}, {"measurement": "Excess over BLISS", "setting": "KG-1 cells; KG-1, 48 hours, ABT-199 100 nM", "value": 0}, {"measurement": "Excess over HSA", "setting": "KG-1 cells; KG-1, 48 hours, ABT-199 100 nM", "value": 0}, {"measurement": "% apoptotic cells (double label)", "setting": "KG-1 cells; KG-1, 48 hours, ABT-199 500 nM", "value": "~14", "unit": "%"}, {"measurement": "Excess over BLISS", "setting": "KG-1 cells; KG-1, 48 hours, ABT-199 500 nM", "value": 0}, {"measurement": "Excess over HSA", "setting": "KG-1 cells; KG-1, 48 hours, ABT-199 500 nM", "value": 0}, {"measurement": "Excess over HSA", "setting": "KG-1 cells; KG-1, 96 hours, ABT-199 1 nM", "value": 0}, {"measurement": "Excess over HSA", "setting": "KG-1 cells; KG-1, 96 hours, ABT-199 5 nM", "value": 0}, {"measurement": "Excess over HSA", "setting": "KG-1 cells; KG-1, 96 hours, ABT-199 20 nM", "value": 0}, {"measurement": "% apoptotic cells (double label)", "setting": "KG-1 cells; KG-1, 96 hours, ABT-199 100 nM", "value": "~6", "unit": "%"}, {"measurement": "Excess over HSA", "setting": "KG-1 cells; KG-1, 96 hours, ABT-199 100 nM", "value": 0}, {"measurement": "% apoptotic cells (double label)", "setting": "KG-1 cells; KG-1, 96 hours, ABT-199 500 nM", "value": "~10", "unit": "%"}, {"measurement": "Excess over HSA", "setting": "KG-1 cells; KG-1, 96 hours, ABT-199 500 nM", "value": 0}, {"measurement": "hTERT RNA expression level, percentage of untreated controls", "setting": "hTERT", "value": "~69", "unit": "%"}, {"measurement": "telomerase activity as compared to control", "setting": "telomerase [1]; KG-1, 48 hours", "value": "no effect"}, {"measurement": "telomerase activity as compared to control", "setting": "telomerase [1]; KG-1, 96 hours", "value": "~80", "unit": "%"}, {"measurement": "telomerase activity as compared to control", "setting": "telomerase [2]; MOLM-13, 48 hours", "value": "no effect"}, {"measurement": "telomerase activity as compared to control", "setting": "telomerase [2]; MOLM-13, 96 hours", "value": "~70", "unit": "%"}]}
